Our source for the IC50 values is ChEMBL document CHEMBL1126853, “A series of penicillin-derived C2-symmetric inhibitors of HIV-1 proteinase: structural and modeling studies” (J Med Chem, 1993).

For orientation: IC50 means the midpoint of a concentration-inhibition curve. Read a low IC50 as inhibition by little substance.

This assay concerns the target Human immunodeficiency virus type 1 protease (Human immunodeficiency virus 1, UniProt Q72874). In words: Inhibitory activity against HIV-1 Protease.

Consider `CCNC(=O)[C@@H](NC(=O)c1c(-c2ccccc2)noc1C)[C@@H]1NC(C(=O)NCCNC(=O)[C@@H]2N[C@@H]([C@H](NC(=O)c3c(-c4ccccc4)noc3C)C(=O)NCC)SC2(C)C)C(C)(C)S1` (some centres not stated), for which inhibition was half-maximal at 5.4 nM (IC50).
Compound `CCNC(=O)[C@@H](NC(=O)Cc1ccccc1)[C@@H]1NC(C(=O)NCCNC(=O)[C@@H]2N[C@@H]([C@H](NC(=O)Cc3ccccc3)C(=O)NCC)SC2(C)C)C(C)(C)S1` (some centres not stated) came in with an IC50 of 3 nM. This IC50 lies about 1.8-fold lower than the previous one.
Regarding `CC1(C)S[C@H]([C@H](NC(=O)Cc2ccccc2)C(=O)NCC(F)(F)F)NC1C(=O)NCCNC(=O)[C@@H]1N[C@@H]([C@H](NC(=O)Cc2ccccc2)C(=O)NCC(F)(F)F)SC1(C)C` (some centres not stated), the IC50 was determined as 4.4 nM.
`CCNC(=O)[C@@H](NC(=O)c1ccccc1)[C@@H]1NC(C(=O)NCCNC(=O)[C@@H]2N[C@@H]([C@H](NC(=O)c3ccccc3)C(=O)NCC)SC2(C)C)C(C)(C)S1` (some centres not stated) showed an IC50 of 390 nM.
The same measure for `CC1(C)S[C@H]([C@H](NC(=O)Cc2ccccc2)C(=O)NCc2ccccc2)NC1C(=O)NCCCNC(=O)[C@@H]1N[C@@H]([C@H](NC(=O)Cc2ccccc2)C(=O)NCc2ccccc2)SC1(C)C` (some centres not stated): 540 nM; for `CC1(C)S[C@H]([C@H](NC(=O)Cc2ccccc2)C(=O)NCc2ccccc2)NC1C(=O)NCC(O)CNC(=O)[C@@H]1N[C@@H]([C@H](NC(=O)Cc2ccccc2)C(=O)NCc2ccccc2)SC1(C)C` (some centres not stated): 5 nM; for `CCNC(=O)[C@@H](NC(=O)c1ccccc1-c1ccccc1)[C@@H]1NC(C(=O)NCCNC(=O)[C@@H]2N[C@@H]([C@H](NC(=O)c3ccccc3-c3ccccc3)C(=O)NCC)SC2(C)C)C(C)(C)S1` (some centres not stated): 9.9 nM.
